Molecules are shown by their SMILES. A value given as a limit tells only on which side of the number the result lay.

The test system of the assay is HIV-1 (HIVIIIB). The assay can be described thus: HIV-1 replication in MT2 cell line with and without 30% human serum (viral RT activity in supernatant). In kind it is cell-based. The note with it: Human immunodeficiency virus 1, MT2, MT-2 cells, with 30% human serum, average IC50 if tested more than once, read-out: MT-2 (HIVIIIB) with 30% HS IC50 range. The method in brief: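 MT2 cells infected with HIVIIIB at MOI 0.5 for 3 h, washed, then cultured with serially diluted compound in RPMI/10% FBS, with or without 30% human serum, at 37° C. Compound-containing medium refreshed at day 3. Replication measured as supernatant RT activity at day 5; IC50 and IC90 from curve fits.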
As usually defined, the IC50 is the concentration needed to halve the response being measured. On to `Cc1ccc(NC(=O)[C@@]23CC[C@]4(C)[C@H](CC[C@@H]5[C@@]6(C)CC[C@H](OC(=O)CC(C)(C)C(=O)O)C(C)(C)[C@@H]6CC[C@]54C)C2=C(C(C)C)C(=O)C3)cc1` [9-49, 3β-O-(3′,3′-Dimethylsuccinyl)-21-oxolup-18-en-28-oic acid N-4-methyl-phen-1-yl acetamide], for which the IC50 is below 199 nM. To `CC(C)C1=C2C3CCC4[C@@]5(C)CC[C@H](OC(=O)CC(C)(C)C(=O)O)C(C)(C)C5CC[C@@]4(C)[C@]3(C)CC[C@@]2(C(=O)Nc2ccccc2Cl)CC1=O` (stereo partly drawn) [9-86, 3β-O-(3′,3′-Dimethylsuccinyl)-21-oxolup-18-en-28-oic acid N-2-chloro-phen-1-yl acetamide] belongs below 199 nM; to `CC(C)C1=C2[C@H]3CC[C@@H]4[C@@]5(C)CC[C@H](OC(=O)CC(C)(C)C(=O)O)C(C)(C)[C@@H]5CC[C@@]4(C)[C@]3(C)CC[C@@]2(C(=O)Nc2ccn(C)n2)CC1=O` [9-53, 3β-O-(3′,3′-Dimethylsuccinyl)-21-oxolup-18-en-28-oic acid N-3-amino-1-methyl-1H-pyrazole-acetamide], below 199 nM. Consider `CC(C)C1=C2[C@H]3CC[C@@H]4[C@@]5(C)CC[C@H](OC(=O)CC(C)(C)C(=O)O)C(C)(C)[C@@H]5CC[C@@]4(C)[C@]3(C)CC[C@@]2(C(=O)NCc2ccccc2Cl)CC1=O` [9-12, 3β-O-(3′,3′-Dimethylsuccinyl)-21-oxolup-18-en-28-oic acid N-2-chloro-benzylamide], for which the IC50 is below 199 nM. To `CC(=O)NC1CCN(C(=O)[C@@]23CC[C@]4(C)[C@H](CC[C@@H]5[C@@]6(C)CC[C@H](OC(=O)CC(C)(C)C(=O)O)C(C)(C)[C@@H]6CC[C@]54C)C2=C(C(C)C)C(=O)C3)CC1` [9-43, 3β-O-(3′,3′-Dimethylsuccinyl)-21-oxolup-18-en-28-oic acid N-(4-acetylamino-1-piperidine)-acetamide] belongs below 199 nM; to `CC(C)C1=C2C3CCC4[C@@]5(C)CC[C@H](OC(=O)CC(C)(C)C(=O)O)C(C)(C)C5CC[C@@]4(C)[C@]3(C)CC[C@@]2(C(=O)N2Cc3ccccc3C2)CC1=O` (stereo partly drawn) [9-92, 3β-O-(3′,3′-Dimethylsuccinyl)-21-oxolup-18-en-28-oic acid N-(1,3-dihydro-isoindol-2-yl)-acetamide], below 199 nM; to `CC(C)C1=C2[C@H]3CC[C@@H]4[C@@]5(C)CC[C@H](OC(=O)CC(C)(C)C(=O)O)C(C)(C)[C@@H]5CC[C@@]4(C)[C@]3(C)CC[C@@]2(C(=O)NC(C)(C)c2ccccc2)CC1=O` [9-34, 3β-O-(3′,3′-Dimethylsuccinyl)-21-oxolup-18-en-28-oic acid N-(1-methyl-1-phenyl-ethyl)-acetamide], below 199 nM. In the case of `CC(C)C1=C2[C@H]3CC[C@@H]4[C@@]5(C)CC[C@H](OC(=O)CC(C)(C)C(=O)O)C(C)(C)[C@@H]5CC[C@@]4(C)[C@]3(C)CC[C@@]2(C(=O)N2CCCCC2)CC1=O` [9-6, 3β-O-(3′,3′-Dimethylsuccinyl)-21-oxolup-18-en-28-oic acid N-piperidinyl acetamide] it was below 199 nM. To `CC(C)C1=C2[C@H]3CC[C@@H]4[C@@]5(C)CC[C@H](OC(=O)CC(C)(C)C(=O)O)C(C)(C)[C@@H]5CC[C@@]4(C)[C@]3(C)CC[C@@]2(C(=O)N2CCC(NC(=O)OC(C)(C)C)CC2)CC1=O` [9-41, 3β-O-(3′,3′-Dimethylsuccinyl)-21-oxolup-18-en-28-oic acid N-(4-aminocarboxylic acid tert-butyl-ester-1-piperidine)-acetamide] belongs below 199 nM. With `CC(=O)N1CC2CCC(C1)N2C(=O)[C@@]12CC[C@]3(C)C(CCC4[C@@]5(C)CC[C@H](OC(=O)CC(C)(C)C(=O)O)C(C)(C)C5CC[C@]43C)C1=C(C(C)C)C(=O)C2` (stereo partly drawn) [9-95, 3β-O-(3′,3′-Dimethylsuccinyl)-21-oxolup-18-en-28-oic acid N-8-acetylamino-3,8-diaza-bicyclo[3.2.1]octane-3-acetamide], the IC50 was below 199 nM.

These data come from patent US8431556B2, “C-21-keto lupane derivatives preparation and use thereof” (Vertex Pharmaceuticals Incorporated, priority 2008, dated 2013).
